Results reported in ChEMBL document CHEMBL1123050, “New cysteamine (2-chloroethyl)nitrosoureas. Synthesis and preliminary antitumor results” (1985).

Columns and labels:
Mus musculus [1] = experiment: Number of survivors/ number of animals tested at the dose of 80 mg/Kg, iv; 0/6; assay type: functional
Mus musculus [2] = experiment: Number of survivors/ number of animals tested at the dose of 40 mg/Kg, iv; 0/6; assay type: functional
Mus musculus [3] = experiment: Number of survivors/ number of animals tested at the dose of 125 mg/Kg, iv; 6/6; assay type: functional
Mus musculus [4] = experiment: Number of survivors/ number of animals tested at the dose of 165 mg/Kg; 6/6; assay type: functional
Mus musculus [5] = experiment: Number of survivors/ number of animals tested at the dose of 40 mg/Kg; 2/6; assay type: functional
Mus musculus [6] = experiment: Antitumor activity was evaluated against L1210 leukemia, injected intravenously at a dose 80 umol/kg; assay type: functional
Mus musculus [7] = experiment: Number of survivors/ number of animals tested at the dose of 210 mg/Kg; 0/6; assay type: functional
Mus musculus [8] = experiment: Number of survivors/ number of animals tested at the dose of 210 mg/Kg; 3/6; assay type: functional
Mus musculus [9] = experiment: Number of survivors/ number of animals tested at the dose of 80 mg/Kg; 6/6; assay type: functional
Mus musculus [10] = experiment: Number of survivors/ number of animals tested at the dose of 125 mg/Kg; 6/6; assay type: functional
Mus musculus [11] = experiment: Number of survivors/ number of animals tested at the dose of 165 mg/Kg; 5/6; assay type: functional
L1210 [12] = experiment: (§1) Antitumor activity was evaluated against L1210 leukemia, injected intraperitoneally at a dose 40 umol/kg; assay type: functional, Mus musculus
Mus musculus [13] = experiment: Antitumor activity was evaluated against L1210 leukemia, injected intraperitoneally at a dose 210 umol/kg; assay type: functional
Mus musculus [14] = experiment: Antitumor activity was evaluated against L1210 leukemia, injected intravenously at a dose 40 umol/kg; assay type: functional
L1210 [15] = experiment: Number of survivors/ number of animals tested at the dose of 125 mg/Kg; 0/6; assay type: functional, Mus musculus
L1210 [16] = experiment: Number of survivors/ number of animals tested at the dose of 75 mg/Kg; 6/6; assay type: functional, Mus musculus
L1210 [17] = experiment: Antitumor activity was evaluated against L1210 leukemia, injected intraperitoneally at a dose 75 umol/kg; infinity-50-100%survivals; assay type: functional, cell-based; conditions: Mus musculus
L1210 [18] = experiment: Number of survivors/ number of animals tested at the dose of 25 mg/Kg; 0/6; assay type: functional, Mus musculus
L1210 [19] = experiment: Antitumor activity was evaluated against L1210 leukemia, injected intraperitoneally at a dose 95 umol/kg; infinity-50-100%survivals; assay type: functional, cell-based; conditions: Mus musculus
L1210 [20] = experiment: Antitumor activity was evaluated against L1210 leukemia, injected intraperitoneally at a dose 120 umol/kg; assay type: functional, Mus musculus
L1210 [21] = experiment: Number of survivors/ number of animals tested at the dose of 50 mg/Kg; 6/6; assay type: functional, Mus musculus
L1210 [22] = experiment: Number of survivors/ number of animals tested at the dose of 95 mg/Kg; 3/6; assay type: functional, Mus musculus
L1210 [23] = experiment: Antitumor activity was evaluated against L1210 leukemia, injected intraperitoneally at a dose 25 umol/kg; assay type: functional, Mus musculus
L1210 [24] = experiment: Antitumor activity was evaluated against L1210 leukemia, injected intraperitoneally at a dose 50 umol/kg; infinity-50-100%survivals; assay type: functional, cell-based; conditions: Mus musculus
Mus musculus [25] = experiment: Antitumor activity was evaluated against L1210 leukemia, injected intraperitoneally at a dose 125 umol/kg; infinity-50-100%survivals; assay type: functional, organism-based
Mus musculus [26] = experiment: Antitumor activity was evaluated against L1210 leukemia, injected intraperitoneally at a dose 165 umol/kg; infinity-50-100%survivals; assay type: functional, organism-based
Mus musculus [27] = experiment: Antitumor activity was evaluated against L1210 leukemia, injected intraperitoneally at a dose 80 umol/kg; infinity-50-100%survivals; assay type: functional, organism-based
Mus musculus [28] = experiment: Antitumor activity was evaluated against L1210 leukemia, injected intravenously at a dose 165 umol/kg; infinity-50-100%survivals; assay type: functional, organism-based
Mus musculus [29] = experiment: Antitumor activity was evaluated against L1210 leukemia, injected intravenously at a dose 125 umol/kg; infinity-50-100%survivals; assay type: functional, organism-based
Mus musculus [30] = experiment: Antitumor activity was evaluated against L1210 leukemia, injected intravenously at a dose 210 umol/kg; infinity-50-100%survivals; assay type: functional, organism-based
Mus musculus [31] = experiment: Antitumor activity was evaluated against L1210 leukemia, injected intravenously at a dose 115 umol/kg; infinity-50-100%survivals; assay type: functional, organism-based
Mus musculus [32] = experiment: Antitumor activity was evaluated against L1210 leukemia, injected intravenously at a dose 195 umol/kg; infinity-50-100%survivals; assay type: functional, organism-based
Mus musculus [33] = experiment: Antitumor activity was evaluated against L1210 leukemia, injected intraperitoneally at a dose 195 umol/kg; infinity-50-100%survivals; assay type: functional, organism-based
Mus musculus [34] = experiment: Antitumor activity was evaluated against L1210 leukemia, injected intraperitoneally at a dose 155 umol/kg; infinity-50-100%survivals; assay type: functional, organism-based
Mus musculus [35] = experiment: Antitumor activity was evaluated against L1210 leukemia, injected intravenously at a dose 155 umol/kg; infinity-50-100%survivals; assay type: functional, organism-based
Mus musculus [36] = experiment: Antitumor activity was evaluated against L1210 leukemia, injected intraperitoneally at a dose 115 umol/kg; infinity-50-100%survivals; assay type: functional, organism-based
Mus musculus [37] = experiment: Antitumor activity was evaluated against L1210 leukemia, injected intravenously at a dose umol/kg; infinity-50-100%survivals; assay type: functional, organism-based
Mus musculus [38] = experiment: Number of survivors/ number of animals tested at the dose of 60 mg/Kg, iv; 4/6; assay type: functional
Mus musculus [39] = experiment: Antitumor activity was evaluated against L1210 leukemia, injected intravenously at a dose umol/kg, survivors/6; assay type: functional
Mus musculus [40] = experiment: (§2) Number of survivors/ number of animals tested at the dose of 40 mg/Kg, iv; 6/6; assay type: functional
Mus musculus [41] = experiment: (§3) Number of survivors/ number of animals tested at the dose of 20 mg/Kg, iv; 0/6; assay type: functional
Mus musculus [42] = experiment: Antitumor activity was evaluated against L1210 leukemia, injected intravenously at a dose umol/kg; assay type: functional
Mus musculus [43] = experiment: Antitumor activity was evaluated against L1210 leukemia, injected intravenously at a dose 40-250 umol/kg; assay type: functional
Mus musculus [44] = experiment: Number of survivors/ number of animals tested at the dose of 115 mg/Kg, ip; 6/6; assay type: functional
Mus musculus [45] = experiment: as §1; assay type: functional
Mus musculus [46] = experiment: Number of survivors/ number of animals tested at the dose of 40 mg/Kg, ip; 0/6; assay type: functional
Mus musculus [47] = experiment: Number of survivors/ number of animals tested at the dose of 155 mg/Kg, ip; 6/6; assay type: functional
Mus musculus [48] = experiment: Number of survivors/ number of animals tested at the dose of 195 mg/Kg, ip; 5/6; assay type: functional
Mus musculus [49] = experiment: Number of survivors/ number of animals tested at the dose of 195 mg/Kg, iv; 5/6; assay type: functional
Mus musculus [50] = experiment: Number of survivors/ number of animals tested at the dose of 155 mg/Kg, iv; 6/6; assay type: functional
Mus musculus [51] = experiment: Antitumor activity was evaluated against L1210 leukemia, injected intraperitoneally at a dose 295 umol/kg; assay type: functional
Mus musculus [52] = experiment: Antitumor activity was evaluated against L1210 leukemia, injected intravenously at a dose 235 umol/kg; assay type: functional
Mus musculus [53] = experiment: Number of survivors/ number of animals tested at the dose of 80 mg/Kg, ip; 5/6; assay type: functional
Mus musculus [54] = experiment: Number of survivors/ number of animals tested at the dose of 115 mg/Kg, iv; 6/6; assay type: functional
Mus musculus [55] = experiment: Number of survivors/ number of animals tested at the dose of 235 mg/Kg, ip; 0/6; assay type: functional
Mus musculus [56] = experiment: Number of survivors/ number of animals tested at the dose of 235 mg/Kg, iv; 5/6; assay type: functional
L1210 [57] = experiment: as §3; assay type: functional, Mus musculus
L1210 [58] = experiment: Number of survivors/ number of animals tested at the dose of 120 mg/Kg, iv; 0/6; assay type: functional, Mus musculus
L1210 [59] = experiment: Number of survivors/ number of animals tested at the dose of 80 mg/Kg, iv; 1/6; assay type: functional, Mus musculus
L1210 [60] = experiment: as §2; assay type: functional, Mus musculus
Mus musculus [61] = experiment: Antitumor activity was evaluated against L1210 leukemia, injected intravenously at a dose 120 umol/kg; assay type: functional
Mus musculus [62] = experiment: Antitumor activity was evaluated against L1210 leukemia, injected intravenously at a dose 20 umol/kg; assay type: functional
L1210 [63] = experiment: Number of survivors/ number of animals tested at the dose of 60 mg/Kg, iv; 6/6; assay type: functional, Mus musculus

C[S+]([O-])CCN(N=O)C(=O)NCCCl.C[S+]([O-])CCNC(=O)N(CCCl)N=O (stereo unspecified) [listing 1 of 2 here]
Survivors (Mus musculus [1]): 0 | Survivors (Mus musculus [2]): 0 | Survivors (Mus musculus [3]): 6 | Survivors (Mus musculus [4]): 6 | Survivors (Mus musculus [5]): 2 | T/C x100 (Mus musculus [6]): 270 | Survivors (Mus musculus [7]): 0 | Survivors (Mus musculus [8]): 3 | Survivors (Mus musculus [9]): 6 | Survivors (Mus musculus [10]): 6 | Survivors (Mus musculus [11]): 5 | T/C x100 (L1210 [12]): 300 | T/C x100 (Mus musculus [13]): 295 | T/C x100 (Mus musculus [14]): 170

O=NN(CCCl)C(=O)NCCSSCCN(N=O)C(=O)NCCCl.O=NN(CCSSCCN(N=O)C(=O)NCCCl)C(=O)NCCCl
Survivors (L1210 [15]): 0 | Survivors (L1210 [16]): 6 | T/C x100 (L1210 [17]): infinity-50-100%survivals | Survivors (L1210 [18]): 0 | T/C x100 (L1210 [19]): infinity-50-100%survivals | T/C x100 (L1210 [20]): 125 | Survivors (L1210 [21]): 6 | Survivors (L1210 [22]): 3 | T/C x100 (L1210 [23]): 250 | T/C x100 (L1210 [24]): infinity-50-100%survivals

C[S+]([O-])CCN(N=O)C(=O)NCCCl.C[S+]([O-])CCNC(=O)N(CCCl)N=O (stereo unspecified) [listing 2 of 2 here]
T/C x100 (Mus musculus [25]): infinity-50-100%survivals | T/C x100 (Mus musculus [26]): infinity-50-100%survivals | T/C x100 (Mus musculus [27]): infinity-50-100%survivals | T/C x100 (Mus musculus [28]): infinity-50-100%survivals | T/C x100 (Mus musculus [29]): infinity-50-100%survivals | T/C x100 (Mus musculus [30]): infinity-50-100%survivals

CS(=O)(=O)CCN(N=O)C(=O)NCCCl.CS(=O)(=O)CCNC(=O)N(CCCl)N=O [listing 1 of 2 here]
T/C x100 (Mus musculus [31]): infinity-50-100%survivals | T/C x100 (Mus musculus [32]): infinity-50-100%survivals | T/C x100 (Mus musculus [33]): infinity-50-100%survivals | T/C x100 (Mus musculus [27]): infinity-50-100%survivals | T/C x100 (Mus musculus [34]): infinity-50-100%survivals | T/C x100 (Mus musculus [35]): infinity-50-100%survivals | T/C x100 (Mus musculus [36]): infinity-50-100%survivals

C[S+]([O-])CCNC(=O)N(CCCl)N=O (stereo unspecified)
T/C x100 (Mus musculus [37]): infinity-50-100%survivals | Survivors (Mus musculus [38]): 4 | T/C x100 (Mus musculus [39]): 190 | Survivors (Mus musculus [40]): 6 | Survivors (Mus musculus [1]): 0 | Survivors (Mus musculus [41]): 0 | T/C x100 (Mus musculus [42]): 190

C[S+]([O-])CCN(N=O)C(=O)NCCCl (stereo unspecified)
T/C x100 (Mus musculus [43]): <125

CS(=O)(=O)CCN(N=O)C(=O)NCCCl.CS(=O)(=O)CCNC(=O)N(CCCl)N=O [listing 2 of 2 here]
Survivors (Mus musculus [44]): 6 | T/C x100 (Mus musculus [45]): 190 | Survivors (Mus musculus [46]): 0 | Survivors (Mus musculus [1]): 0 | Survivors (Mus musculus [2]): 0 | T/C x100 (Mus musculus [6]): 230 | Survivors (Mus musculus [47]): 6 | Survivors (Mus musculus [48]): 5 | Survivors (Mus musculus [49]): 5 | Survivors (Mus musculus [50]): 6 | T/C x100 (Mus musculus [51]): 410 | T/C x100 (Mus musculus [52]): 290 | Survivors (Mus musculus [53]): 5 | T/C x100 (Mus musculus [14]): 190 | Survivors (Mus musculus [54]): 6 | Survivors (Mus musculus [55]): 0 | Survivors (Mus musculus [56]): 5

CS(=O)(=O)CCN(N=O)C(=O)NCCCl
T/C x100 (Mus musculus [43]): <125

CS(=O)(=O)CCNC(=O)N(CCCl)N=O
Survivors (L1210 [57]): 0 | Survivors (L1210 [58]): 0 | Survivors (L1210 [59]): 1 | Survivors (L1210 [60]): 6 | T/C x100 (Mus musculus [61]): 190 | T/C x100 (Mus musculus [6]): 300 | T/C x100 (Mus musculus [62]): 200 | Survivors (L1210 [63]): 6
